Laboratory results from ChEMBL document CHEMBL1141775, “Friedolanostanes and lanostanes from the leaves of Garcinia hombroniana” (2005).

System: Staphylococcus aureus
Assay: Antibacterial activity against methicillin-resistant Staphylococcus aureus
Type: functional

Structure (SMILES) | MIC [µg/mL]
COC(=O)[C@H](C)CC(=O)C[C@@H](C)C1=CC[C@@]2(C)[C@@H]3CC[C@H]4C(C)(C)[C@@H](O)CC[C@]4(C)C3=CC[C@]12C | > 128
COC(=O)[C@H](C)CC(=O)C[C@@H](C)C1=CC[C@@]2(C)[C@@H]3CC[C@H]4C(C)(C)[C@H](O)CC[C@]4(C)C3=CC[C@]12C [GARCIHOMBRONANE J] | > 128
C/C(=C\CC[C@@H](C)[C@]1(C)CC[C@]2(C)C1=CC[C@@]1(O)[C@H]2CC[C@H]2C(C)(C)[C@H](O)CC[C@@]21C)C(=O)O [GARCIHOMBRONANE H] | > 128
COC(=O)/C(C)=C/[C@H](O)C[C@@H](C)[C@]1(C)CC=C2[C@@H]3CC[C@H]4C(C)(C)[C@H](O)CC[C@]4(C)[C@@]3(O)CC[C@]21C [GARCIHOMBRONANE B] | > 128
CC(C)=C/C=C\[C@@H](C)[C@]1(C)CC=C2[C@@H]3CC[C@H]4C(C)(C)[C@H](O)CC[C@]4(C)[C@@]3(O)CC[C@]21C [GARCIHOMBRONANE F] | > 128
COC(=O)/C(C)=C/[C@H](O)C[C@@H](C)[C@]1(C)CC=C2C3=C(CC[C@]21C)[C@@]1(C)CC[C@@H](O)C(C)(C)[C@@H]1CC3 [GARCIHOMBRONANES C] | > 128
C/C(=C\CC[C@@H](C)[C@]1(C)CC[C@]2(C)C1=CC[C@@]1(O)[C@H]2CC[C@H]2C(C)(C)[C@@H](O)CC[C@@]21C)C(=O)O [GARCIHOMBRONANE I] | > 128
C/C(=C\C=C/[C@@H](C)[C@]1(C)CC[C@]2(C)C1=CC[C@@]1(O)[C@H]2CC[C@H]2C(C)(C)[C@H](O)CC[C@@]21C)C(=O)O [GARCIHOMBRONANE G] | > 128
C[C@H](CC(=O)C[C@@H](C)C1=CC[C@@]2(C)[C@@H]3CC[C@H]4C(C)(C)[C@H](O)CC[C@]4(C)C3=CC[C@]12C)C(=O)O [GARCIHOMBRONANES E] | > 128
C[C@H](CC(=O)C[C@@H](C)C1=CC[C@@]2(C)[C@@H]3CC[C@H]4C(C)(C)[C@@H](O)CC[C@]4(C)C3=CC[C@]12C)C(=O)O [GARCIHOMBRONANES D] | > 128
